Results: patent US20230286973A1, “PROTEIN SECRETION INHIBITORS” (KEZAR LIFE SCIENCES, priority 2020, published 2023)
pEC50, pIC50: −log10 of the molar value.

How the values were obtained:
[1] = tested on: PD1-ss+10aa/Gaussia Luciferase; assay: Dox-Induced PD1-ss-Gluc Assay; format: cell-based; conditions: 24 hr Dox induction; 293FRT/TO cells; read-out: 24 hr Dox Inducible PD1ssGluc 293FRT/TO: Mean IC50
In short: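 Flp-In 293 T-REx cells stably carrying a doxycycline-inducible Gaussia luciferase fused to the PD1 signal sequence plus 10 aa were plated the day before. Compound dilutions in DMSO/media containing doxycycline were then added and incubated at 37 °C, 5% CO2. Data for undefined stereochemistry refer to stereoisomer mixtures.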

[2] = tested on: TNFα-FL/Gaussia Luciferase; assay: Dox Induced TNFα-FL-Gluc Assay; format: cell-based; conditions: for pIC50: 24 hr Dox induction, 293FRT/TO cells, read-out: 24 hr Dox Inducible TNFaFLGluc 293FRT/TO: Mean IC50; for 24 hr Dox Inducible TNFaFLGluc 293FRT/TO: TNF/PD1: ratio of TNFaFLGluc IC50 to PD1ssGluc IC50
In short: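 Compound was added with doxycycline to cells plated a day earlier, incubating at 37° C under 5% CO2. The reporter line is 293 T-REx expressing a TNFα (1-233)–Gaussia luciferase fusion under tetracycline-regulated control.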

[3] = tested on: HER3-ss+4aa/Gaussia Luciferase; assay: Dox-Induced Her3-ss-Gluc Assay; format: cell-based; conditions: 24 hr Dox induction; 293FRT/TO cells; read-out: 24 hr Dox Inducible Her3(ss + 4)Gluc 293FRT/TO: Mean IC50
In short: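 Compounds were diluted in DMSO/media containing doxycycline. They were added to Flp-In 293 T-REx cells plated the previous day, then incubated at 37 °C under 5% CO2. These cells stably express, under T-REx control, Gaussia luciferase fused to the HER3 signal sequence plus 4 amino acids.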

[4] = tested on: IL-2-FL/Gaussia Luciferase; assay: Dox Induced IL2-FL-Gluc Assay; format: cell-based; conditions: for pIC50: 24 hr Dox induction, 293FRT/TO cells, read-out: 24 hr Dox Inducible IL2FLGluc 293FRT/TO: Mean IC50; for 24 hr Dox Inducible IL2FLGluc 293FRT/TO: IL2/PD1: ratio of IL2FLGluc IC50 to PD1ssGluc IC50
In short: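 Compounds in DMSO/medium with doxycycline were applied to a 293 T-REx stable line expressing an IL-2 (aa 1-153)–Gaussia luciferase fusion under tetracycline-regulated control, cells seeded one day earlier; incubation at 37 °C, 5% CO2. Structures drawn without stereochemistry were tested as stereoisomer mixtures.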

[5] = tested on: multiple myeloma cell line NCI-H929; assay: H929 Cell Viability Assay; format: cell-based, human; conditions: Homo sapiens, NCI-H929, 48 h, NCI-H929 cells, Celltiter-Glo
In short: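 Luminescent CellTiter-Glo read-out of viability after a 48 h exposure (37° C, 5% CO2) of NCI-H929 myeloma cells to compound dilutions in RPMI 1640 plus 10% FBS. Data for structures drawn without stereochemistry refer to stereoisomer mixtures.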

[6] = tested on: multiple myeloma cell line U266B1; assay: U266 Cell Viability Assay; format: cell-based, human; conditions: Homo sapiens, U-266, 48 h, U266B1 cells, Celltiter-Glo
In short: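 CellTiter-Glo luminescence was read after a 48 h compound exposure (37 °C, 5% CO2) of human U266B1 myeloma cells grown in 10% FBS-supplemented RPMI 1640. Data for structures shown without defined stereochemistry refer to stereoisomer mixtures.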

[7] = Liver Microsome Stability Assay (rat); conditions: rat liver microsomes, with NADPH, 1.0 uM compound
Protocol: (§1) Stability of a compound was assessed in the presence of liver microsomes from various sources—mouse, rat, monkey and human liver microsomes. 1.0 uM compound, 0.4% DMSO in 0.1 M Potassium Phosphate with 1.0 mg/mL liver microsomes, were incubated at 37° C. with or without 1 mM NADPH. The samples were quenched at 0, and 30 minutes.

[8] = Liver Microsome Stability Assay (mouse); conditions: mouse liver microsomes, with NADPH, 1.0 uM compound
Protocol: as §1

[9] = Liver Microsome Stability Assay (human); conditions: human liver microsomes, with NADPH, 1.0 uM compound
Protocol: as §1

[10] = Liver Microsome Stability Assay (monkey); conditions: monkey liver microsomes, with NADPH, 1.0 uM compound
Protocol: as §1

| Structure (SMILES) | pIC50 [1] | pIC50 [2] | 24 hr Dox Inducible TNFaFLGluc 293FRT/TO: TNF/PD1 [2] | pIC50 [3] | pIC50 [4] | 24 hr Dox Inducible IL2FLGluc 293FRT/TO: IL2/PD1 [4] | pEC50 [5] | pEC50 [6] | Liver Microsome Stability (Multiple Species): Rat - % Remaining after 30 min w/NADPH [7] | Liver Microsome Stability (Multiple Species): Mouse - % Remaining after 30 min w/NADPH [8] | Liver Microsome Stability (Multiple Species): Human - % Remaining after 30 min w/NADPH [9] | Liver Microsome Stability (Multiple Species): Monkey - % Remaining after 30 min w/NADPH [10] |
| --- | --- | --- | --- | --- | --- | --- | --- | --- | --- | --- | --- | --- |
| CC(=O)N[C@H](C)c1ccc(N2CCC[C@@H]2c2csc(NC(=O)c3cccn3Cc3ccncc3)n2)cc1 [Compound A66, N-(4-((R)-1-(4-((R)-1-acetamidoethyl)phenyl)pyrrolidin-2-yl)thiazol-2-yl)-1-(pyridin-4-ylmethyl)-1H-pyrrole-2-carboxamide] | 7.57 | 6.23 | 21.5 | 7.22 | 7.16 | 2.5 | 6.38 | < 4.60 | 5.19% | 30% | 2.98% | 2.72% |
| C[C@@H](N)c1ccc(N2CCC[C@@H]2c2csc(NC(=O)c3cccn3Cc3ccncc3)n2)cc1 [Compound A67, N-(4-((R)-1-(4-((R)-1-aminoethyl)phenyl)pyrrolidin-2-yl)thiazol-2-yl)-1-(pyridin-4-ylmethyl)-1H-pyrrole-2-carboxamide] | 7.63 | 6.06 | 36.4 | 7.19 | 7.26 | 2.3 | 6.25 | 5.16 | 51.9% | 82.3% | 28.9% | 40.4% |
| CC(=O)Nc1ccc(N2CCC[C@@H]2c2csc(NC(=O)c3cccn3Cc3ccnc(F)c3)n2)cc1 [Compound A68, (R)-N-(4-(1-(4-acetamidophenyl)pyrrolidin-2-yl)thiazol-2-yl)-1-((2-fluoropyridin-4-yl)methyl)-1H-pyrrole-2-carboxamide] | 8.63 | 7.36 | 19 | 8.30 | 8.22 | 2.6 | 7.35 | < 4.60 | 16.9% | 27.5% | 25.8% | 11.8% |
| CC(=O)N[C@@H](C)c1ccc(N2CCC[C@@H]2c2csc(NC(=O)c3cccn3Cc3ccnc(F)c3)n2)cc1 [Compound A69, N-(4-((R)-1-(4-((S)-1-acetamidoethyl)phenyl)pyrrolidin-2-yl)thiazol-2-yl)-1-((2-fluoropyridin-4-yl)methyl)-1H-pyrrole-2-carboxamide] | 7.28 | 6.48 | 6.35 | 7.22 | 6.94 | 2.2 | 5.50 | < 4.60 | 35% | 12.1% | 1.43% | 0.47% |
| CC(=O)N[C@H](C)c1ccc(N2CCC[C@@H]2c2csc(NC(=O)c3cccn3Cc3ccnc(F)c3)n2)cc1 [Compound A70, N-(4-((R)-1-(4-((R)-1-acetamidoethyl)phenyl)pyrrolidin-2-yl)thiazol-2-yl)-1-((2-fluoropyridin-4-yl)methyl)-1H-pyrrole-2-carboxamide] | 7.88 | 6.63 | 18 | 7.74 | 7.52 | 2.3 | 6.41 | < 4.60 | 7.79% | 23.7% | 2.86% | 0.83% |
| C[C@H](N)c1ccc(N2CCC[C@@H]2c2csc(NC(=O)c3cccn3Cc3ccncc3)n2)cc1 [Compound A71, N-(4-((R)-1-(4-((S)-1-aminoethyl)phenyl)pyrrolidin-2-yl)thiazol-2-yl)-1-(pyridin-4-ylmethyl)-1H-pyrrole-2-carboxamide] | 6.87 | 5.43 | 27.2 | 6.83 | 6.44 | 2.7 | 5.36 | 5.11 | 82.1% | 95.6% | 51.8% | 36.1% |
| C[C@@H](N)c1ccc(N2CCC[C@@H]2c2csc(NC(=O)c3cccn3Cc3ccnc(F)c3)n2)cc1 [Compound A72, N-(4-((R)-1-(4-((R)-1-aminoethyl)phenyl)pyrrolidin-2-yl)thiazol-2-yl)-1-((2-fluoropyridin-4-yl)methyl)-1H-pyrrole-2-carboxamide] | 6.85 | 5.58 | 18.8 | 6.71 | 6.50 | 2.2 | 5.42 | 5.18 | 94.1% | 72.3% | 23.9% | 37.8% |
| CC(=O)N[C@@H](C)c1ccc(N2CCC[C@@H]2c2csc(NC(=O)c3cccn3Cc3ccncc3)n2)cc1 [Compound A73, N-(4-((R)-1-(4-((S)-1-acetamidoethyl)phenyl)pyrrolidin-2-yl)thiazol-2-yl)-1-(pyridin-4-ylmethyl)-1H-pyrrole-2-carboxamide] | 7.58 | 6.46 | 13.2 | 7.63 | 7.05 | 3.3 | 5.43 | < 4.60 | 15% | 0.14% | 0.1% | 0.08% |
